# Experimental data taken from US20220356162A1, “Heterocyclic Compounds as Lipoxygenase Inhibitors” (Dr. Reddy's Institute of Life Sciences, priority 2019, published 2022).
# Where two headings read alike, the source gives them in different places.
# Assays:
# human 12R-LOX enzyme = molecular target: T1, human 12R-LOX enzyme (Homo sapiens, UniProt O75342); assay: Screening of compounds against 12R-LOX in isolated enzyme systems; assay type: biochemical; details: for inhibition at 100 µM: read-out: % Inhibition (at 100 μM)
# T1 construct: Coding region of the cDNA was amplified from the basic vector pCMV6Neo-12R-LOX (OriGene, USA) and was ligated into pET28(b); His-tag (N); made in house; host or cells: E. coli BL21 Rossetta DE3
# T1 sequence (O75342 1-701): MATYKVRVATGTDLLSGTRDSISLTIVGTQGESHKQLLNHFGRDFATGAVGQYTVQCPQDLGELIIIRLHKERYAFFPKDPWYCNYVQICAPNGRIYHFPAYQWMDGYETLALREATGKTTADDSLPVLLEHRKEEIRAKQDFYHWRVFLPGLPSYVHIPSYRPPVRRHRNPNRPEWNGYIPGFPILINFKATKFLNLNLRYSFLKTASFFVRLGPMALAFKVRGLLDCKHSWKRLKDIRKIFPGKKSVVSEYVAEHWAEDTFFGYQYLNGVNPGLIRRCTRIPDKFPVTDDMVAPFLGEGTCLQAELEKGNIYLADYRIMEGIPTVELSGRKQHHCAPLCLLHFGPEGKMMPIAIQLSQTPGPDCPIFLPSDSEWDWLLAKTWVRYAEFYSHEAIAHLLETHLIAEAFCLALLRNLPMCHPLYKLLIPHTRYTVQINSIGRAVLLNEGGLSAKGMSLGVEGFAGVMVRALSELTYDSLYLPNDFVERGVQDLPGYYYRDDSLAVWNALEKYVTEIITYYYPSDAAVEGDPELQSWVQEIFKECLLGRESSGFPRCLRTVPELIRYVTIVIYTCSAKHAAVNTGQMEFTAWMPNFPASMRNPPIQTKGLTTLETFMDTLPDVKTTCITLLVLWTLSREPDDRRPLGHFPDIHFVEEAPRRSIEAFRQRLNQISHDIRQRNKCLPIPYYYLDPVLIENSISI
# Text: Human 12R-LOX gene was cloned and expressed as an N-terminally His-tagged fusion protein. Coding region of the cDNA was amplified from the basic vector pCMV6Neo-12R-LOX (OriGene, USA) and was ligated into pET28(b), a prokaryotic protein expression vector. E. coli BL21 Rossetta DE3 (an engineered strain of BL21) was transformed with the pET28(b) recombinant vector containing Kanamycin and chloramphenicol resistance gene as the selection markers. Single colony selected on kanamycin and chloramphenicol was checked for the expression of the protein. For this single colony was cultured at 37° C. in LB medium containing […] kanamycin and […] chloramphenicol to reach an absorbance of 0.6 at 600 nm. The cultured bacteria were then induced to express recombinant protein by using isopropyl β-D-thiogalactopyranoside (IPTG) (1 mM final concentration) at 18° C. The culture was incubated for 8-12 h and then the culture was spun down to collect the bacterial cells. The cells were re-suspended in the required amount of phosphate buffer saline (PBS) containing protease inhibitor. The cells were then lysed by sonication to extract the protein. The cells were sonicated for 5 min. and then debris was removed by centrifugation at 13000 rpm for 30 min at 4° C. The clear supernatant was collected and was used as the source of enzyme.
# Purification of the recombinant 12R-LOX protein was performed using nickel-nitrilotriacetic acid (Ni-NTA) metal-affinity chromatography as per manufacturer's protocol. Briefly, Ni-NTA slurry (500 microliters for 150 mL of culture) was added to the cleared bacterial lysate and mixed gently by shaking at 4° C. for 60 min. Then the lysate—Ni-NTA slurry was loaded into a column. The column was then washed with 10 mL of washing buffer (50 mM phosphate buffer with 300 mM sodium chloride) containing 20 mM imidazole to remove loosely bound proteins. Then tightly bound proteins were eluted from the column with elution buffer (50 mM phosphate buffer with 300 mM sodium chloride) containing 300 mM imidazole. The purified protein fractions were then analyzed further by SDS-PAGE and western blotting to confirm the presence of 12R-LOX (FIGS. 1a and 1b).
# Fractions with human 12R-LOX protein were added to a total volume of 0.3 mL of phosphate buffered saline (pH 7.4) and incubated with substrate, arachidonic acid methyl ester. The mixture was vortexed and incubated for 15 min at 37° C. […] After 5 min the reaction was acidified to pH 3 with 50 μL of acetic acid and then the proteins were precipitated with the addition of 0.3 mL of ice-cold methanol. The total mixture was centrifuged (14000 rpm for 15 min) to remove the proteins and the clear supernatant was analysed on reverse phase HPLC (RP-HPLC). The solvent system used was methanol:water:acetic acid in the ratio of 85:15:0.1 with a flow rate of 1 mL/min on a C18 column. The chromatograms were followed by monitoring the absorbance for HETE products at 235 nm. Individual peak areas in each chromatogram were taken for further comparison analysis.
# Baicalein, the standard 12R-LOX inhibitor, was used as a positive control for all inhibition assays performed. The compounds were evaluated for their inhibitory action against human 12R-LOX enzyme at 100 μM concentration in vitro. Further, IC50 of the compounds of the present invention were determined.
# [1] = 12R-LOX inhibitory activities in vitro
# [2] = 12R-LOX inhibitory activities in vitro, 100 μM concentration
IC50 (human 12R-LOX enzyme; [1]) [µM],inhibition at 100 µM (human 12R-LOX enzyme; [2]) [%],melting point [°C],Structure (SMILES),inhibition at 100 µM (human 12R-LOX enzyme) [%]
188,40,202 to 204,"Nc1ccc(O)cc1-c1cc(=O)c2ccccc2o1 [Compound 1, 2-(2-Amino-5-hydroxyphenyl)-4H-chromen-4-one]",
,56,,"CS(=O)(=O)Nc1ccc(OS(C)(=O)=O)cc1-c1cc(=O)c2ccccc2o1 [Compound 2, 4-(Methylsulfonamido)-3-(4-oxo-4H-chromen-2-yl)phenylmethane Sulfonate]",
97,51,,"Nc1cc(I)c(O)cc1-c1cc(=O)c2ccccc2o1 [Compound 3, 2-(2-Amino-5-hydroxy-4-iodophenyl)-4H-chromen-4-one]",
,,118 to 120,"COc1ccc(N)c(-c2cc(=O)c3ccccc3o2)c1 [Compound 4, 2-(2-Amino-5-methoxyphenyl)-4H-chromen-4-one]",
,,88 to 90,"CCOc1ccc(N)c(-c2cc(=O)c3ccccc3o2)c1 [Compound 5, 2-(2-Amino-5-ethoxyphenyl)-4H-chromen-4-one]",
,,153 to 155,"C#CCOc1ccc(N)c(-c2cc(=O)c3ccccc3o2)c1 [Compound 6, 2-(2-Amino-5-(prop-2-ynyloxy)phenyl)-4H-chromen-4-one]",
,,> 200,"O=c1cc(-c2cc(O)ccc2NS(=O)(=O)c2ccccc2)oc2ccccc12 [Compound 8, N-(4-Hydroxy-2-(4-oxo-4H-chromen-2-yl)phenyl)benzene Sulfonamide]",
,,154 to 156,"C#CCOc1ccc(NC(=O)c2ccccc2)c(-c2cc(=O)c3ccccc3o2)c1 [Compound 11, N-(2-(4-Oxo-4H-chromen-2-yl)-4-(prop-2-ynyloxy)phenyl) benzamide]",
,,> 200,"O=C(Nc1ccc(O)cc1-c1cc(=O)c2ccccc2o1)c1ccccc1 [Compound 12, N-(4-Hydroxy-2-(4-oxo-4H-chromen-2-yl)phenyl)benzamide]",
,21 ± 8.4,200 to 202,"Nc1ccc(O)cc1-c1cc(=O)c2ccc(F)cc2o1 [Compound 13, 2-(2-Amino-5-hydroxyphenyl)-7-fluoro-4H-chromen-4-one]",
,6.95 ± 1.6,> 200,"Nc1ccc(O)cc1-c1cc(=O)c2cc(Br)ccc2o1 [Compound 14, 2-(2-Amino-5-hydroxyphenyl)-6-bromo-4H-chromen-4-one]",
,6.33 ± 5.9,> 200,"O=c1cc(-c2cc(O)ccc2NS(=O)(=O)c2ccc([N+](=O)[O-])cc2)oc2ccccc12 [Compound 15, N-(4-Hydroxy-2-(4-oxo-4H-chromen-2-yl)phenyl)-4-nitrobenzenesulfonamide]",
,38.3 ± 3.8,130 to 132,"Nc1ccc(O)cc1-c1cc(=O)c2cc(O)ccc2o1 [Compound 16, 2-(2-Amino-5-hydroxyphenyl)-6-hydroxy-4H-chromen-4-one]",
,30 ± 5,160 to 162,"O=c1cc(-c2cc(O)ccc2NS(=O)(=O)c2ccc(C(F)(F)F)cc2)oc2ccccc12 [Compound 17, N-(4-Hydroxy-2-(4-oxo-4H-chromen-2-yl)phenyl)-4-(trifluoromethyl)benzenesulfonamide]",
98.1,53.5 ± 4.2,> 200,"Nc1ccc(O)cc1-c1cc(=O)c2ccc(Br)cc2o1 [Compound 18, 2-(2-Amino-5-hydroxyphenyl)-7-bromo-4H-chromen-4-one]",

Structure (SMILES),IC50 (human 12R-LOX enzyme; [1]) [µM],inhibition at 100 µM (human 12R-LOX enzyme; [2]) [%],melting point [°C],inhibition at 100 µM (human 12R-LOX enzyme) [%]
"C#CCOc1ccc(NS(=O)(=O)c2ccccc2)c(-c2cc(=O)c3ccccc3o2)c1 [Compound 7, N-(2-(4-Oxo-4H-chromen-2-yl)-4-(prop-2-ynyloxy)phenyl)benzene sulfonamide]",,,152 to 154,21 ± 7
